In US8217071B2, “Use of inhibitors of the degradation of p27, in particular Argyrin and derivatives thereof, for the treatment of proliferative diseases” (Helmholtz Zentrum für Infektionsforschung GmbH, priority 2007, dated 2012):
Numbered stars: 1 amine (or outer) side, 2 acyl side, 3 side chain; on linkers, the order of the positions; unused ones are H or OH. Square brackets hold non-standard residues; d marks the D form. Peptide text beside a SMILES is read from it. dAla(ψthiazole) = C[C@@H](N[*:1])c1nc(C(=O)[*:2])cs1; Trp(4-OMe) = COc1cccc2[nH]cc(C[C@H](N)C(=O)O)c12; Dha = C=C(N)C(=O)O; Sar = CNCC(=O)O

Columns and labels:
[1] = test system: HUVEC; assay: In vitro capillary-like tube structure formation on matrigel; format: cell-based, human
Excerpt: The inventors then asked whether Argyrin A was also able to prevent the formation of capillary like tube structures formed by HUVEC on matrigel, an assay frequently used to test the ability of a compound to interfere with neovascularization. […] The addition of Argyrin A led to a 40% reduction in tube formation in this assay. Importantly transfection of siRNA against p27 protected endothelial cells against the inhibitory activity of Argyrin A. The effects exerted by Bortezomib in this assay were smaller and not rescued by loss of p27. In addition to tube length the inventors also quantitated the number of blood vessel like structures formed by HUVECS after treatment with Argyrin A or bortezomib (FIG. 4F).
(§1) Treatment with Argyrin A or bortezomib was started when these tumours reached a volume of 200 mm3. […] (n=8 Argyrin A, n=8 Bortezomib, n=6 PBS/EtOH) b) The pictures show the macroscopic appearance of a xenotransplant tumour after 10 days of treatment with Argyrin A. Note the large necrotic centre of the explanted tumour. c) After a single injection of Argyrin A (0.15 mg/kg bodyweight) or bortezomib (1.0 mg/kg bodyweight) tumours were explanted at the indicated time points and blood vessels in the tumour tissue were co-stained for CD31 and p27. […] Note the swelling of the endothelial cell (“E”) and the occlusion of the lumen (“L”) by erythrocytes after 90 minutes of Argyrin A treatment. The arrow marks the detachment of endothelial cells after 48 h of Argyrin A treatment. […] Tube length (f) and blood vessel like […] structures were determined using photographs of HUVEC cultures. The micrographs show representative examples of HUVEC cultures under the indicated conditions.
Primary microvascular endothelial cells (HMVEC) were isolated from human foreskin. The cells were kept at 37° C. and 10% CO2 in EGM-2 MV from Cambrex which includes the basal medium (EBM-2), FBS, hydrocortisone, hFGF-B, VEGF, R3-IGF, ascorbic acid, hEGF, gentamicin and amphotericin. The effect of argyrin A or bortezomib on in vitro angiogenesis was determined by matrigel capillary-like tube structure formation assay. To examine the effect of the different compounds on in vitro angiogenesis, HMVECs were seeded in 96-well culture plates precoated with Matrigel (BD Biosciences, #354248) and exposed to argyrin A or bortezomib. Enclosed networks of tube structures from three randomly chosen fields were scored under the microscope (Leica, Cambridge, United Kingdom). Pictures were taken with an Axio Vision 3.1 Zeiss camera and scored by determining tube length and the formation of closed vessel like structures.

[2] = test system: CD31 positive endothelial cells in tumour tissues (SW480 or HCT116); assay: Microvessel density (CD31) in tumour tissue after single injection; format: in vivo, mouse
Protocol: This phenotype is often observed with drugs which interfere with blood vessel formation or compounds which directly damage existing tumour vessels. […] This reduction in tumour vasculature was paralleled by an induction of p27^kip1 expression in the CD31 positive endothelial cells. (FIG. 7A). To understand this phenotype in more detail the inventors analyzed primary tumour material by electronic microscopy. As early as 90 minutes after injection the inventors observed swelling of endothelial cell which was followed by a loss of basal membrane attachment and cell-cell contacts (FIG. 4D) in the tumour vasculature. As a result of the apparent loss of cell and basal membrane attachment after Argyrin A treatment many of the examined tumour blood vessels were occluded with endothelial cells or erythrocytes. The destruction of the tumour core which the inventors observed after Argyrin A treatment might therefore be a result of thrombotic occlusion of the affected blood vessels. In contrast the bortezomib induced reduction in CD31 positive cells correlated with the appearance of necrotic endothelial cells (FIG. 4D).
as §1
Immunohistochemical staining of mouse tumour tissue, western Blotting and immunofluorescence experiments were done as previously described (Timmerbeul, I. et al. Testing the importance of p27 degradation by the SCFskp2 pathway in murine models of lung and colon cancer. Proc Natl Acad Sci USA 103, 14009-14 (2006). Kossatz, U. et al. C-terminal phosphorylation controls the stability and function of p27^kip1. Embo J 25, 5159-70 (2006).). […]

[3] = test system: MCF7 cells; assay: Gene expression signature (DNA microarray) of MCF7 cells; format: cell-based, human
Protocol: The inventors decided to compare the cellular responses of cells treated with Argyrin A or bortezomib directly. To this end the inventors determined the gene expression signature of MCF7 cells in response to Argyrin A or bortezomib and compared the resulting gene expression profiles. […] As shown in FIG. 2G the gene expression profiles of MCF7 cells which were treated with either bortezomib or Argyrin A differ dramatically. While bortezomib treatment led to changes in the expression of more than 10900 genes, only about 500 genes changed in response to Argyrin A treatment. Among these genes, 311 were affected by both bortezomib and Argyrin A, respectively.
Quality and integrity of the total RNA isolated was controlled by running all samples on an Agilent Technologies 2100 Bioanalyzer (Agilent Technologies; Waldbronn, Germany). For biotin-labelled target synthesis starting from 3 μg of total RNA, reactions were performed using standard protocols supplied by the manufacturer (Affymetrix; Santa Clara, Calif.). In each case 10 μg of labelled cRNA were hybridized to an identical lot of Affymetrix GeneChips HG-U133 2.0 for 16 hours at 45° C. After hybridisation the GeneChips were washed, stained with SA-PE and read using an Affymetrix GeneChip fluidic station and scanner.
Analysis of microarray data was performed using the Affymetrix GCOS 1.2 software. […]

[4] = Argyrin A 1 μM, bortezomib 10 nM

Structure (SMILES) | number of blood vessel like structures [1, 4] | reduction in tube formation (relative length of capillary tubes) ([1]; VEGF stimulation, Argyrin A 1 μM) [%] | CD31 positive cells remaining ([2]; 72 hours after injection) | number of CD31 positive endothelial cells ([2]; single injection) | start of reduction of CD31 positive endothelial cells after injection ([2]; single injection) [min] | number of genes with changed expression [3] | effect on tube formation compared with Argyrin A ([1]; bortezomib 10 nM)
C=C1NC(=O)[C@@H](C)NC(=O)CNC(=O)[C@H](Cc2c[nH]c3cccc(OC)c23)NC(=O)[C@H](Cc2c[nH]c3ccccc23)NC(=O)c2csc(n2)[C@@H](C)NC(=O)CN(C)C1=O [Argyrin A] (cyclo(W[Trp(4-OMe)]G[dA][Dha][Sar][dAla(ψthiazole)])) | significant reduction | 40 | about 10% | significant reduction | ≥ 90 | about 500 genes | 
CC(C)C[C@H](NC(=O)[C@H](Cc1ccccc1)NC(=O)c1cnccn1)B(O)O [bortezomib, reference compound] | significant reduction |  |  | reduction |  | more than 10900 genes | smaller
